The test system of one series is HIV-HXB2. Put plainly: Antiviral assay: protection of HIV-infected MT4 cells from cell death (MTT). The class given is cell-based. As to conditions: Human immunodeficiency virus 1, 120 h; MT4 cells infected with HIV-HXB2; 5 days; MTT viability; rounded to nearest whole number. On the procedure:
Methods 20: 309-321]. The method is based on the ability of compounds to protect HIV-infected T lymphoblastoid cells (MT4 cells) from cell-death mediated by the infection. The endpoint of the assay was calculated as the concentration of compound at which the cell viability of the culture was preserved by 50% (‘50% inhibitory concentration’, IC50). The cell viability of a culture was determined by the uptake of soluble, yellow 3-[4,5-dimethylthiazol-2-yl]-2,5-diphenyltetrazolium bromide (MTT) and its reduction to a purple insoluble formazan salt. After solubilization, spectrophotometric methods were employed to measure the amount of formazan product.
MT4 cells were prepared to be in logarithmic-phase growth and a total of 2×10^6 cells infected with either the wild type or site directed mutant clones of HIV-HXB2 at a multiplicity of approximately 0.0001 infectious units of virus per cell in a total volume of between 200-500 μl. The cells were incubated with virus for one hour at 37° C. then washed in 0.01 M phosphate buffered saline, pH 7.2, and resuspensed in culture medium for incubation in culture with serial dilutions of test compound. The culture medium used was RPMI 1640 without phenol red, supplemented with penicillin, streptomycin, L-glutamine and 10% fetal calf serum (GM10).
Test compounds were prepared as 2 mM solutions in dimethyl sulphoxide (DMSO). Four replicate, serial 2-fold dilutions in GM10 were then prepared and 50 microliter amounts placed in 96-well plates over a final concentration range of […]. Fifty microliters GM10 and 3.75×10^4 infected cells were then added to each well. Control cultures containing no cells (blank), uninfected cells (100% viability; 4 replicates) and infected cells without compound (total virus-mediated cell death; 4 replicates) were also prepared. The cultures were then incubated at 37° C. in a humidified atmosphere of 5% CO2 in air for 5 days.
A fresh solution of 5 mg/mL MTT was prepared in 0.01 M phosphate buffered saline, pH 7.2 and 20 μL added to each culture. The cultures were further incubated as before for 2 hours. They were then mixed by pipetting up and down, and 170 microliters of Triton X-100 in acidified isopropanol (10% v/v Triton X-100 in 1:250 mixture of concentrated HCl in isopropanol) were added and the cultures were mixed again by pipetting up and down. When the formazan deposit was fully solubilized by further mixing, the absorbance (OD) of the cultures was measured at 540 nm and 690 nm wavelength (690 nm readings were used as blanks for artefacts between wells). The percent protection for each treated culture was then calculated from the equation:
OD drug-treated cultures)−(OD untreated virus control cultures) % Protection=100%
(OD uninfected cultures)−(OD untreated virus control cultures)
The IC50 was then obtained from graph plots of percentage protection versus log10 drug concentration.

Another series addresses HIV-1 protease (Human immunodeficiency virus type 1 group M subtype B, UniProt P04585). Description: HIV protease inhibition assay (quenched fluorogenic substrate, fluorescence energy transfer).

Each structure is given as a SMILES string.

Procedure for HIV-1 protease: HIV protease inhibitory activity was assessed using an adaptation of the method of Matayoshi. et al. [Matayoshi E. D. et al (1990).
Crude HIV-1 protease was prepared from E. coli pPTΔN. Cultures were grown at 30° in M9 medium supplemented with 0.2% casamino acids, 100 μg/ml ampicillin and 25 μg/ml thiamine until OD600=0.5-0.6, and the temperature was raised to 42° to induce expression of the protease. After 1.5 hours, the cells were harvested and the pellets stored at −70° until required.
The protease was prepared by lysis of the cells in a French pressure cell followed by precipitation of the enzyme with ammonium sulfate at 30% saturation.
The assay buffer comprised 0.1M sodium acetate pH 4.7, 8 mM EDTA, 0.2 M NaCl.
Tubes were incubated for 2 hours at 37° and the reaction was terminated by the addition of 500 μl of a 2:1 mixture of DMSO:50 mM Tricine pH 8.5. Fluorescence was measured in a fluorescence spectrophotometer, excitation λ=340 nm, emission λ=492 nm.

Broadly, the IC50 is the concentration needed to halve the response being measured. Low readings indicate higher potency, high ones lower potency. By melting point is commonly meant the temperature of the solid-liquid transition. In the case of `CC(C)(C)NC(=O)[C@@H]1C[C@@H]2CCCC[C@@H]2CN1C[C@@H](O)[C@H](Cc1ccccc1)NC(=O)CC(C)(C)S(C)(=O)=O` [Example 95, N-tert-Butyl-1,2,3,4,4a(S),5,6,7,8,8a(S)-decahydro-1-[2(R)-hydroxy-3(S)-[3-(methanesulfonyl)butyramido]-4-phenylbutyl]-2(S)-piperazinecarboxamide], the melting point fell in the range of 95 to 110 °C. This compound also had an IC50 with HIV-HXB2 of 250 nM. Further, on HIV-1 protease, 61 nM corresponded to half-maximal inhibition (IC50).

In the case of `COC(=O)N[C@H](C(=O)N[C@@H](Cc1ccccc1)[C@H](O)CN1C[C@H]2CCCC[C@H]2C[C@H]1C(=O)NC(C)(C)C)C(C)(C)S(C)(=O)=O` [Example 4, N-tert-Butyl-1,2,3,4,4a(S),5,6,7,8,8a(S)-decahydro-2-[2(R)-hydroxy-3(S)-[[3-(methanesulfonyl)-N-(methoxycarbonyl)-L-valyl]amino]-4-phenylbutyl]-3(S)-isoquinolinecarboxamide], the melting point lay within 190 to 194 °C. In the series on HIV-HXB2, this compound showed an IC50 of 14 nM. The IC50 on HIV-1 protease worked out at 2.8 nM.

The record behind these values is patent US6472404B1 (priority 2000, dated 2002).
